From US20250326772A1, “MRGPRX2 ANTAGONISTS, PHARMACEUTICAL COMPOSITION INCLUDING MRGPRX2 ANTAGONIST, AND METHOD OF TREATING MRGPRX2-MEDIATED DISEASE OR DISORDER” (KYORIN PHARMACEUTICAL CO., LTD., priority 2024, published 2025)

These compounds were tested against T1, MRGPRX2 (Homo sapiens, UniProt Q96LB1) (assay: MRGPRX2 reporter cell assay (NFAT-RE luciferase, Substance P stimulation)). Conditions: U2OS cells stably transfected with MRGPRX2 and NFAT-RE luciferase reporter; Substance P at EC80.
T1 sequence (Q96LB1 1-330): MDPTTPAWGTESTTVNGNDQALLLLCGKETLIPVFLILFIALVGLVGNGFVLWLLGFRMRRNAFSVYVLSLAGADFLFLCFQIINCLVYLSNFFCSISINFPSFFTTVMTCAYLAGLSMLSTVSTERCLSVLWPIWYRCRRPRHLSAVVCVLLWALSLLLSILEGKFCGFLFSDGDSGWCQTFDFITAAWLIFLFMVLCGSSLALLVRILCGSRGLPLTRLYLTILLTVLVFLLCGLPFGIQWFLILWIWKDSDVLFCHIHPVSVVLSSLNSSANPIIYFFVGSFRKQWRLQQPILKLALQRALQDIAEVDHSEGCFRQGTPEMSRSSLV
Type: cell-based
How it was run: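 U2OS cells stably expressing MRGPRX2 and an NFAT-RE luc2P reporter, pre-incubated 30 min at 37° C with compound (0.5% DMSO), then stimulated with Substance P at EC80 for 6 h. Luminescence after ONE-GLO; percent inhibition fitted by four-parameter logistic to IC50.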

IC50	Compound
2.9 nM	Cn1cc(-c2c(-c3c(C(F)F)nn4c3OCCC4)[nH]c3ncccc23)c(OC(F)F)n1 [EX. 272]

Same assay, conditions: U2OS cells stably transfected with MRGPRX2 and NFAT-RE luciferase reporter; Substance P at EC80; class symbols

IC50	Compound
< 10 nM	Cc1cc(-c2c(-c3c(C(F)F)nn4c3OC[C@@](C)(O)C4)[nH]c3ncccc23)c(C#N)s1 [EX. 451]
< 10 nM	Cn1cc(-c2c(-c3c(C(F)F)nn4c3OC[C@@](C)(OCC(N)=O)C4)[nH]c3ncccc23)c(OC(F)F)n1 [EX. 482]
< 10 nM	Cn1cc(C(=O)N[C@@H]2COc3c(-c4[nH]c5ncccc5c4-c4cn(C)nc4OC(F)F)c(C(F)F)nn3C2)cn1 [EX. 562]
< 10 nM	COC(=O)N[C@@H]1COc2c(-c3[nH]c4ncsc4c3-c3cn(C)nc3OC(F)F)c(C(F)F)nn2C1 [EX. 519]
< 10 nM	COc1nn2cccnc2c1-c1[nH]c2ncccc2c1-c1ccccc1C#N [EX. 141]
< 10 nM	COc1ccsc1-c1[nH]c2ncccc2c1-c1ccccc1C#N [EX. 53]
< 10 nM	CNC(=O)O[C@@H]1COc2c(-c3[nH]c4ncccc4c3-c3cn(C)nc3C#N)c(C(F)F)nn2C1 [EX. 503]
< 10 nM	O[C@@H]1COc2c(-c3[nH]c4ncccc4c3-c3cccc(F)c3OC(F)F)c(C(F)F)nn2C1 [EX. 466]
< 10 nM	Cn1nc(-c2[nH]c3ncccc3c2-c2ccccc2C#N)c(C(F)(F)F)n1 [EX. 241]
< 10 nM	Cc1ccc(F)c(-c2c(-c3cc(F)ccc3O)[nH]c3ncccc23)c1 [EX. 344]
< 10 nM	COc1ccc(C#N)c(-c2c(-c3c(C(F)F)nn4c3OC[C@H](N)C4)[nH]c3ncccc23)c1 [EX. 361]
< 10 nM	Fc1ccc(-c2c(-c3c(C(F)F)nn4c3OC[C@@H](F)C4)[nH]c3ncccc23)c(OC(F)F)c1 [EX. 447]
< 10 nM	Cc1cc(-c2c(-c3cn(C)nc3C(F)F)[nH]c3ncccc23)c(C#N)s1 [EX. 287]
< 10 nM	O[C@@H]1COc2c(-c3[nH]c4ncccc4c3-c3ccccc3)c(C(F)F)nn2C1 [EX. 465]
< 10 nM	COC(=O)N[C@@H]1COc2c(-c3[nH]c4ncccc4c3-c3csnc3OC(F)F)c(C(F)F)nn2C1 [EX. 518]
< 10 nM	Cn1cc(-c2c(-c3c(C(F)F)nn4c3OC[C@@H](N)C4)[nH]c3ncsc23)c(OC(F)F)n1 [EX. 428, (S)-3-(6-(3-(difluoromethoxy)-1-methyl-1H-pyrazol-4-yl)-4H-pyrrolo[2,3-d]thiazol-5-yl)-2-(difluoromethyl)-6,7-dihydro-5H-pyrazolo[5,1-b] [1,3]oxazin-6-amine]
< 10 nM	CNC(=O)COC(=O)N[C@@H]1COc2c(-c3[nH]c4ncccc4c3-c3cn(C)nc3OC(F)F)c(C(F)F)nn2C1 [EX. 590]
< 10 nM	O[C@@H]1COc2c(-c3[nH]c4ncccc4c3-c3ccccc3OC(F)(F)F)c(C(F)F)nn2C1 [EX. 464]
< 10 nM	[2H]C([2H])([2H])Oc1ccc(C#N)c(-c2c(-c3c(C(F)F)nn4c3OCC(O)C4)[nH]c3ncccc23)c1 (stereo not drawn) [EX. 202]
< 10 nM	Cn1cc(-c2c(-c3c(C(F)F)nn4c3OC[C@@H](NC(=O)OCC(N)=O)C4)[nH]c3ncccc23)c(OC(F)F)n1 [EX. 584]

IC50	Compound
< 10 nM	O[C@@H]1COc2c(-c3[nH]c4ncccc4c3-c3ccncc3OC(F)F)c(C(F)F)nn2C1 [EX. 463]
< 10 nM	[2H]C([2H])([2H])Oc1ccc(C#N)c(-c2c(-c3c(C)nn4c3OCCC4)[nH]c3ncccc23)c1 [EX. 239]
< 10 nM	C[C@@]1(O)COc2c(-c3[nH]c4ncccc4c3-c3cccnc3OC(F)F)c(C(F)F)nn2C1 [EX. 438]
< 10 nM	[2H]C([2H])([2H])Oc1ccc(C#N)c(-c2c(-c3c(C)nn4cccnc34)[nH]c3ncccc23)c1 [EX. 236]
< 10 nM	COc1ccc(C#N)c(-c2c(-c3c(C(F)F)nn4c3OC[C@@H](F)C4)[nH]c3ncccc23)c1 [EX. 471]
< 10 nM	[2H]C([2H])([2H])Oc1ccc(F)cc1-c1[nH]c2ncccc2c1-c1ccccc1C#N [EX. 346]
< 10 nM	COc1ccc(C#N)c(-c2c(-c3nn(C)cc3C(F)F)[nH]c3ncccc23)c1 [EX. 281]
100 to 1000 nM	COc1ccc(F)cc1-c1[nH]c2ncccc2c1C1=CCCCC1 [EX. 301, 3-(cyclohex-1-en-1-yl)-2-(5-fluoro-2-methoxyphenyl)-1H-pyrrolo[2,3-b]pyridine]
< 10 nM	[2H]C([2H])([2H])Oc1ccc(C#N)c(-c2c(-c3c(C)nn4c3OCC4)[nH]c3ncccc23)c1 [EX. 238]
< 10 nM	FC(F)Oc1ncccc1-c1c(-c2c(C(F)F)nn3c2OCC3)[nH]c2ncccc12 [EX. 442]
< 10 nM	Cn1cc(-c2c(-c3c(C(F)F)nn4c3OC[C@@H](NS(C)(=O)=O)C4)[nH]c3ncccc23)c(OC(F)F)n1 [EX. 526, (S)—N-(3-(3-(3-(difluoromethoxy)-1-methyl-1H-pyrazol-4-yl)-1H-pyrrolo[2,3-b]pyridin-2-yl)-2-(difluoromethyl)-6,7-dihydro-5H-pyrazolo[5,1-b] [1,3]oxazin-6-yl) methanesulfonamide]
< 10 nM	FC(F)Oc1ncccc1-c1c(-c2c(C(F)F)nn3c2OCCC3)[nH]c2ncccc12 [EX. 410]
< 10 nM	Cn1cc(-c2c(-c3c(C(F)F)nn4c3OC[C@@H](NC(=O)C3CC(F)(F)C3)C4)[nH]c3ncccc23)c(OC(F)F)n1 [EX. 554]
< 10 nM	Cc1ccc(C#N)c(-c2c(-c3cnn4cccnc34)[nH]c3ncccc23)c1 [EX. 100]
< 10 nM	[2H]C([2H])([2H])Oc1ccc(C#N)c(-c2c(-c3c(C(F)F)nn4c3OCC(OC)C4)[nH]c3ncccc23)c1 (stereo not drawn) [EX. 201]
< 10 nM	Cn1cc(-c2c(-c3c(C(F)F)nn4c3OC[C@@](C)(OCCO)C4)[nH]c3ncccc23)c(OC(F)F)n1 [EX. 493]
< 10 nM	Cc1nn2c(c1-c1[nH]c3ncccc3c1-c1cccnc1OC(F)F)OC[C@@H](NC(=O)C1CC1)C2 [EX. 594, (S)—N-(3-(3-(2-(difluoromethoxy)pyridin-3-yl)-1H-pyrrolo[2,3-b]pyridin-2-yl)-2-methyl-6,7-dihydro-5H-pyrazolo[5,1-b] [1,3]oxazin-6-yl) cyclopropanecarboxamide]
< 10 nM	COc1ncc(F)cc1-c1c(-c2c(C(F)F)nn3c2OC[C@@H](O)C3)[nH]c2ncccc12 [EX. 476]
< 10 nM	Cn1cc(-c2c(-c3c(C(F)F)nn4c3OCCC4)[nH]c3ncccc23)c(OC(F)F)n1 [EX. 272]
< 10 nM	O[C@@H]1COc2c(-c3[nH]c4ncccc4c3-c3cccnc3OC(F)F)c(C3CC3)nn2C1 [EX. 455]

IC50	Compound
< 10 nM	COc1ncccc1-c1c(-c2c(C(F)F)nn3c2OC[C@@H](O)C3)[nH]c2ncccc12 [EX. 462]
< 10 nM	Cn1cc(-c2c(-c3c(C(F)F)nn4c3OC[C@@H](NC(=O)[C@H]3C[C@@H]3F)C4)[nH]c3ncccc23)c(OC(F)F)n1 [EX. 550]
< 10 nM	Cc1cc(-c2c(-c3c(C)nn4c3OC[C@@H](NC(=O)C3CC3)C4)[nH]c3ncccc23)c(C#N)s1 [EX. 505]
< 10 nM	Cc1nn2c(c1-c1[nH]c3ncccc3c1-c1cn(C)nc1OC(F)F)OC[C@@H](OCCO)C2 [EX. 542]
< 10 nM	CO[C@@H]1COc2c(-c3[nH]c4ncccc4c3-c3cccnc3OC(F)F)c(C(F)F)nn2C1 [EX. 499]
< 10 nM	Cn1cc(-c2[nH]c3ncccc3c2-c2ccccc2C#N)c(CF)n1 [EX. 270]
< 10 nM	Cn1cc(-c2c(-c3c(C(F)F)nn4c3OC[C@@H](NC(=O)[C@H]3CC3(F)F)C4)[nH]c3ncccc23)c(OC(F)F)n1 [EX. 553]
< 10 nM	Cc1cc(-c2c(-c3c(C(F)F)nn4c3OC[C@@H](O)C4)[nH]c3ncccc23)c(Cl)s1 [EX. 479]
< 10 nM	Cn1cc(-c2c(-c3c(C(F)F)nn4c3OCC(O)C4)[nH]c3ncccc23)c(OC(F)F)n1 (stereo not drawn) [EX. 426, 3-(3-(3-(difluoromethoxy)-1-methyl-1H-pyrazol-4-yl)-1H-pyrrolo[2,3-b]pyridin-2-yl)-2-(difluoromethyl)-6,7-dihydro-5H-pyrazolo[5,1-b] [1,3]oxazin-6-ol]
< 10 nM	FC(F)c1nn2c(c1-c1[nH]c3ncccc3c1-c1ccccc1)OC[C@@H](F)C2 [EX. 445]
< 10 nM	OCCO[C@@H]1COc2c(-c3[nH]c4ncccc4c3-c3cccnc3OC(F)F)c(C(F)F)nn2C1 [EX. 495]
100 to 1000 nM	N#Cc1nccnc1-c1c(-c2c(C(F)F)nn3c2OCCC3)[nH]c2ncccc12 [EX. 409]
< 10 nM	[2H]C([2H])([2H])Oc1ccc(C#N)c(-c2c(-c3c(CF)nn4c3OCCC4)[nH]c3ncccc23)c1 [EX. 235]
< 10 nM	[2H]C([2H])([2H])Oc1ccc(C#N)c(-c2c(-c3c(C)nn4c3OCC[C@@H]4C)[nH]c3ncccc23)c1 [EX. 176]
< 10 nM	N#Cc1ccccc1-c1c(-c2cnn3c2OCCC3)[nH]c2nccc(F)c12 [EX. 90]
< 10 nM	[2H]C([2H])([2H])Oc1ccc(C#N)c(-c2c(-c3c(C)nn4cc[nH]c34)[nH]c3ncccc23)c1 [EX. 169]
< 10 nM	C[C@H](O)CN(C)C(=O)N[C@@H]1COc2c(-c3[nH]c4ncccc4c3-c3cn(C)nc3OC(F)F)c(C(F)F)nn2C1 [EX. 595, 3-((S)-3-(3-(3-(difluoromethoxy)-1-methyl-1H-pyrazol-4-yl)-1H-pyrrolo[2,3-b]pyridin-2-yl)-2-(difluoromethyl)-6,7-dihydro-5H-pyrazolo[5,1-b] [1,3]oxazin-6-yl)-1-((S)-2-hydroxypropyl)-1-methylurea]
< 10 nM	COc1ccc(C#N)c(-c2c(-c3c(C(F)F)nn4c3OCC(NC(C)=O)C4)[nH]c3ncccc23)c1 (stereo not drawn) [EX. 358]
< 10 nM	COc1ccc(C#N)c(-c2c(-c3c(C(F)F)nn4c3OC[C@@H](O)C4)[nH]c3ncccc23)c1 [EX. 369]
